Source: US20260109672A1, “SARS-COV-2 MPRO INHIBITORS AND USES THEREOF” (NXERA PHARMA UK LIMITED, priority 2022, published 2026)

Tests used:
[1] = test system: P-glycoprotein (P-gp, MDR1); assay: MDCK-MDR1 permeability and P-gp substrate assay; format: in vitro ADME, canine; conditions: dog, pH 7.4, MDCK-MDR1, apical to basolateral, without P-gp inhibitor
Procedure: Permeability and drug efflux of certain example compounds was investigated using the following assay.
Test compound was added to either the apical side of a confluent monolayer of MDCK-MDR1 (Madin-Darby canine kidney cells stably transfected to express active P-glycoprotein) and permeability was measured by monitoring the appearance of the test compound on the basolateral side of the monolayer using LC-MS/MS. Experiments were performed in the absence and presence of a P-glycoprotein (P-gp) inhibitor elacridar (2 μM) to determine whether the compound was subject to P-gp mediated efflux.
MDCK-MDR1 cells obtained from the NIH (Rockville, MD, USA) were used between passage numbers 6-30. […]
For assessment of A-B permeability, HBSS was removed from the apical compartment and replaced with test compound dosing solution or test compound plus P-gp inhibitor dosing solutions. […] Test compound permeability was assessed in duplicate. […]
Test and control compounds were quantified by LC-MS/MS cassette analysis using a 7-point calibration with appropriate dilution of the samples. The starting concentration (C0) was determined from the dosing solution and the experimental recovery calculated from C0 and both apical and basolateral compartment concentrations.
The permeability coefficient (Papp) for each compound in the absence and presence of a P-gp inhibitor was calculated from the following equation: […]

SARS-CoV-2 Mpro [2] = target: T1, SARS-CoV-2 Mpro (Severe acute respiratory syndrome coronavirus 2, UniProt P0DTD1); assay: SARS-CoV-2 Mpro enzyme assay (FRET); format: biochemical; conditions: 20 nM Mpro, 30 min preincubation at 30° C., mean n=2, read-out: SARS-CoV-2 Mpro enzyme pKi assay pKi (converted)
SARS-CoV-2 Mpro [3] = target: T1, SARS-CoV-2 Mpro; assay: Modified SARS-CoV-2 Mpro enzyme assay (FRET, kinetic read) for reference examples; format: biochemical; conditions: 5 nM Mpro, 20 min preincubation at room temperature, mean n=2, set out in PCT/GB2022/050836, read-out: SARS-CoV-2 Mpro enzyme pKi assay pKi (converted)
[4] = Pedersen et al.; cited from earlier work
SARS-CoV-2 infection = conditions: approved in selected countries for limited use; Zhou et al.; cited from earlier work
live virus = conditions: cited from earlier work
[5] = test system: ten further coronavirus strains; conditions: read-out: Ki values against ten further coronavirus strains; cited from earlier work

Compound	Ki (SARS-CoV-2 Mpro [2]) [nM]	also measured
CC(C)(C)[C@H](NC(=O)C(F)(F)F)C(=O)N1C[C@H]2[C@@H]([C@H]1C(=O)NC(C[C@@H]1CCNC1=O)C(=O)C(=O)NC1CC1)C2(C)C (stereo partly drawn) [Example 1, (1R,2S,5S)-N-(4-(cyclopropylamino)-3,4-dioxo-1-((S)-2-oxopyrrolidin-3-yl)butan-2-yl)-3-((S)-3,3-dimethyl-2-(2,2,2-trifluoroacetamido)butanoyl)-6,6-dimethyl-3-azabicyclo[3.1.0]hexane-2-carboxamide]	3.98	Papp A→B at 60 min, 1 μM [1]: 0.9 ×10⁻⁶ cm/s
CNC(=O)C(=O)C(CC1CC1)NC(=O)[C@@H]1[C@@H]2[C@H](CN1C(=O)[C@@H](NC(=O)C(F)(F)F)C(C)(C)C)C2(C)C (stereo partly drawn) [Example 2, (1R,2S,5S)-N-[1-(cyclopropylmethyl)-3-(methylamino)-2,3-dioxo-propyl]-3-[(2S)-3,3-dimethyl-2-[(2,2,2-trifluoroacetyl)amino]butanoyl]-6,6-dimethyl-3-azabicyclo[3.1.0]hexane-2-carboxamide]	20	Papp A→B at 60 min, 1 μM [1]: 2.2 ×10⁻⁶ cm/s
CC(C)[C@H](NC(=O)C(F)(F)F)C(=O)N1C[C@H]2[C@@H]([C@H]1C(=O)NC(CC1CC1)C(=O)C(N)=O)C2(C)C (stereo partly drawn) [Example 3, (1R,2S,5S)-N-[3-amino-1-(cyclopropylmethyl)-2,3-dioxo-propyl]-6,6-dimethyl-3-[(2S)-3-methyl-2-[(2,2,2-trifluoroacetyl)amino]butanoyl]-3-azabicyclo[3.1.0]hexane-2-carboxamide]	63.1	–
CC(C)(C)[C@H](NC(=O)C(F)(F)F)C(=O)N1C[C@H]2[C@@H]([C@H]1C(=O)NC(CC1CCC1)C(=O)C(N)=O)C2(C)C (stereo partly drawn) [Example 4, (1R,2S,5S)-N-[3-amino-1-(cyclobutylmethyl)-2,3-dioxo-propyl]-3-[(2S)-3,3-dimethyl-2-[(2,2,2-trifluoroacetyl)amino]butanoyl]-6,6-dimethyl-3-azabicyclo[3.1.0]hexane-2-carboxamide]	79.4	–
CC(C)C(=O)N[C@H](C(=O)N1C[C@H]2[C@@H]([C@H]1C(=O)NC(C[C@@H]1CCNC1=O)C(=O)C(=O)NC1CC1)C2(C)C)C(C)(C)C (some centres unmarked) [Example 5]	15.8	–
CC(C)(C)[C@H](NC(=O)C(F)(F)F)C(=O)N1C[C@H]2[C@@H]([C@H]1C(=O)NC(C[C@H]1CCCNC1=O)C(=O)C(=O)NC1CC1)C2(C)C (stereo partly drawn) [Example 6, (1R,2S,5S)-N-[3-(cyclopropylamino)-2,3-dioxo-1-[[(3R)-2-oxo-3-piperidyl]methyl]propyl]-3-[(2S)-3,3-dimethyl-2-[(2,2,2-trifluoroacetyl)amino]butanoyl]-6,6-dimethyl-3-azabicyclo[3.1.0]hexane-2-carboxamide]	10	–
CC1(C)[C@@H]2[C@@H](C(=O)NC(C[C@@H]3CCNC3=O)C(=O)C(=O)NC3CC3)N(C(=O)/C=C/c3ccc(F)cc3F)C[C@@H]21 (stereo partly drawn) [Example 7, (1R,2S,5S)-N-(4-(cyclopropylamino)-3,4-dioxo-1-((S)-2-oxopyrrolidin-3-yl)butan-2-yl)-3-((E)-3-(2,4-difluorophenyl)acryloyl)-6,6-dimethyl-3-azabicyclo[3.1.0]hexane-2-carboxamide]	63.1	–
CC(C)C(=O)N[C@H](C(=O)N1C[C@H]2[C@@H]([C@H]1C(=O)NC(CC1CC1)C(=O)C(=O)C#N)C2(C)C)C(C)(C)C (some centres unmarked) [Example 27]	–	Ki (SARS-CoV-2 Mpro [3]): > 5.01 µM
CC(C)C[C@H](NC(=O)OCc1ccccc1)C(=O)N[C@@H](C[C@@H]1CCNC1=O)C(O)S(=O)(=O)[O-].[Na+] (some centres unmarked) [GC376]	–	Side effects in trials performed in cats [4]: side effects
NC(=O)c1nc(F)c[nH]c1=O [favipiravir]	–	Effect in treatment of SARS-CoV-2 infection (SARS-CoV-2 infection): modest effects
PF-00835231	–	Activity in cell-based live virus assays (live virus): ~1 µM; Ki [5]: 0.03 to 4 nM
